Measured values from patent US20080242726A1 (priority 2004, published 2008).

Assays:
serum cholesterol = test: Effects on cholesterol levels in male baboons; type: in vivo; settings: 1.5 mg/kg for 12 days
Excerpt: (§1) The samples analyzed were sera taken on the day of first treatment before being given test article (day 0), after 12 days of treatment (day 12) and 7 days after the last treatment (end or wash-out).

total serum testosterone = test: Effects of Clomids on serum testosterone in male baboons; type: in vivo; settings: 1.5 mg/kg for 12 days
Excerpt: as §1

[1] = Comparison of Androxal to Androgel in hypogonadal men: side effects; type: in vivo; settings: two week exposure, compared with placebo
Description: (§2) A placebo controlled challenge study was conducted at the Advanced Biological Research, Inc. (ABR) Clinical Research Center in Hackensack, N.J. to compare orally administered Androxal™ (trans-clomiphene) to Androgel® (testosterone) in hypogonadal men. Androgel® (Solvay Pharmaceuticals, Inc.) consists of a cream that administers exogenous testosterone in a transdermal matrix.
(§3) The study enrolled 62 hypogonadal men with testosterone levels less than 300 ng/dl (normal 298-1034 ng/dl) that were randomized into 6 different arms, three doses of Androxal™ (12.5 mg, 25 mg, and 50 mg), placebo, and both high and low doses of Androgel®. Half of the men in each of the Androxal™ and placebo arms were randomized into cohorts that underwent in-clinic sessions on days 1 and 14 to determine pharmacokinetic parameters for Androxal™ as well as cyclical changes in testosterone. The placebo and Androxal™ doses were administered in a double blind fashion. The Androgel® cream was administered in an open label fashion. Half of the Androgel® patients underwent in-clinic sessions similar to the other patients in the study. Following the two week drug exposure patients were followed for an additional seven to ten days to determine the status of their testosterone levels.

total testosterone = test: Comparison of Androxal to Androgel in hypogonadal men: total testosterone; type: in vivo; settings: two weeks
Description: as §2, §3

[2] = Excerpt: as §1
serum prolactin (PRL) = test: Effects on serum prolactin (PRL) in male baboons; type: in vivo; settings: 1.5 mg/kg for 12 days
Excerpt: as §1

SMILES: CCN(CC)CCOc1ccc(C(=C(Cl)c2ccccc2)c2ccccc2)cc1 [Clomid, clomiphene]
- trend of serum cholesterol (serum cholesterol): slight increase
- effect on total serum testosterone (total serum testosterone): more variable total testosterone levels

SMILES: CCN(CC)CCOc1ccc(/C(=C(\Cl)c2ccccc2)c2ccccc2)cc1 [Enclomid, trans-clomiphene]
- side effects [1]: no side effects
- mean increase of testosterone from baseline (total testosterone; high dose 50 mg oral): 294 ng/dL
- mean increase of testosterone from baseline (total testosterone; low dose 12.5 mg oral): 169 ng/dL
- mean increase of testosterone from baseline (total testosterone; mid dose 25 mg oral): 247 ng/dL
- trend of serum cholesterol (serum cholesterol): tended to decrease
- effect on platelets ([2]; 12-day treatment): clear effect
- counts of eosinophiles ([2]; male baboons): raising the counts
- effect on total serum testosterone (total serum testosterone): significant increases
- serum prolactin (PRL) during the study (serum prolactin (PRL)): decrease

SMILES: CCN(CC)CCOc1ccc(/C(=C(/Cl)c2ccccc2)c2ccccc2)cc1 [Zuclomid, cis-clomiphene]
- trend of serum cholesterol (serum cholesterol): tended to increase
- effect on total serum testosterone (total serum testosterone): did not raise total serum testosterone to any extent
